Where a name gives a salt, the structure may show the parent alone.
Target: T1, AR (Homo sapiens, UniProt P10275)
T1 construct: endogenous in cells; host or cells: VCaP cells
T1 sequence (P10275 1-920): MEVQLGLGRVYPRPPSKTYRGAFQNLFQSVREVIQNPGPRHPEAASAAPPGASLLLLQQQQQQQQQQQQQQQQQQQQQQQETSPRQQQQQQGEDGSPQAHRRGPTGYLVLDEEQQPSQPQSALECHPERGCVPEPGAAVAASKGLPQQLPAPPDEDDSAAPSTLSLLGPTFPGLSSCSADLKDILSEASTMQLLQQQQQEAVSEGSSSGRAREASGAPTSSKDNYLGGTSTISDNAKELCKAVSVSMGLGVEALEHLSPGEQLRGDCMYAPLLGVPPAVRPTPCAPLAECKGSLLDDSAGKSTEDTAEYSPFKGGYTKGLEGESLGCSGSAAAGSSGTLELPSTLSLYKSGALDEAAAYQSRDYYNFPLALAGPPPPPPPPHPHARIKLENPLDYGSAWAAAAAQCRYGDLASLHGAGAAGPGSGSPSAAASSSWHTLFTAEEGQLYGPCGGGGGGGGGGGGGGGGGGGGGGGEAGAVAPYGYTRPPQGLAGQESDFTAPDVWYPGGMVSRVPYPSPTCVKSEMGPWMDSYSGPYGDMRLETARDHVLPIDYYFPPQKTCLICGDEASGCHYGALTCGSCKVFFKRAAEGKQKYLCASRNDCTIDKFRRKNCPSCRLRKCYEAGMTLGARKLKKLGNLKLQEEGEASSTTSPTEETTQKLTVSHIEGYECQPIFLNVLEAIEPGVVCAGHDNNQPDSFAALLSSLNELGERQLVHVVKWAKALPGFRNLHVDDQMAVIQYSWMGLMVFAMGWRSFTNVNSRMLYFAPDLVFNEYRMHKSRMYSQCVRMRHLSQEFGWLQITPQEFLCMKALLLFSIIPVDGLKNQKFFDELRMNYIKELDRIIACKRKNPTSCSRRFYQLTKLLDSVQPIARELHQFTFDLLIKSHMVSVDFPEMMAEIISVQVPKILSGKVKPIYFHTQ
Experiment: VCAP AR Degradation Assay
Format: cell-based
Details: for Y (AR degradation efficiency, % of DMSO control): class symbols *; for DC50: class symbols A-C, read-out: DC50
How it was run: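 VCaP cells treated 24 h at 37 °C with a 10-point 1:3 series (top 5 μM final; 0.1% DMSO control). Lysate AR measured by sandwich ELISA, normalized to DMSO as percent of control; DC50, EC50 and lowest AR level (Y) from four-parameter logistic fit.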

Row | Compound | Y (AR degradation efficiency, % of DMSO control) | DC50 [nM]
1 | CCc1cc(N2C(=S)N(c3cnc(C#N)c(C(F)(F)F)c3)C(=O)C23CCC3)ccc1OCCN1CCN(CC(=O)Nc2cccc(NC3CCC(=O)NC3=O)c2)[C@H](C)C1 (stereo partly drawn) [Example 108, 2-((R)-4-(2-(4-(7-(6-cyano-5-(trifluoromethyl)pyridin-3-yl)-8-oxo-6-thioxo-5,7-diazaspiro[3.4]octan-5-yl)-2-ethylphenoxy)ethyl)-2-methylpiperazin-1-yl)-N-(3-(2,6-dioxopiperidin-3-ylamino)phenyl)acetamide] | * (0<Y<=25%) | < 100
2 | CCc1cc(N2C(=S)N(c3ccc(C#N)c(C(F)(F)F)c3)C(=O)C2(C)C)ccc1OCCN1CCN(CC(=O)Nc2cc(NC3CCC(=O)NC3=O)cc(F)c2F)CC1 (stereo not shown) [Example 70, 2-(4-(2-(4-(3-(4-cyano-3-(trifluoromethyl)phenyl)-5,5-dimethyl-4-oxo-2-thioxoimidazolidin-1-yl)-2-ethylphenoxy)ethyl)piperazin-1-yl)-N-(5-(2,6-dioxopiperidin-3-ylamino)-2,3-difluorophenyl)acetamide] | * (0<Y<=25%) | < 100
3 | CC1(C)C(=O)N(c2ccc(C#N)c(C(F)(F)F)c2)C(=S)N1c1ccc(OCCN2CCN(CC(=O)Nc3cc(Cl)cc(NC4CCC(=O)NC4=O)c3)CC2)c(F)c1 (stereo not shown) [Example 4, hydrochloride] | * (0<Y<=25%) | < 100
4 | CC(C)c1cc(N2C(=S)N(c3ccc(C#N)c(C(F)(F)F)c3)C(=O)C2(C)C)ccc1OCCN1CCN(CC(=O)Nc2cccc(NC3CCC(=O)NC3=O)c2)CC1 (stereo not shown) [Example 17, hydrochloride] | * (0<Y<=25%) | < 100
5 | CCc1cc(N2C(=S)N(c3cnc(C#N)c(C(F)(F)F)c3)C(=O)C2(C)C)ccc1OCCN1CCN([C@H](C)C(=O)Nc2cc(F)cc(NC3CCC(=O)NC3=O)c2)CC1 (stereo partly drawn) [Example 117, (2R)-2-(4-(2-(4-(3-(6-cyano-5-(trifluoromethyl)pyridin-3-yl)-5,5-dimethyl-4-oxo-2-thioxoimidazolidin-1-yl)-2-ethylphenoxy)ethyl)piperazin-1-yl)-N-(3-(2,6-dioxopiperidin-3-ylamino)-5-fluorophenyl)propanamide] | * (0<Y<=25%) | < 100
6 | CCc1cc(N2C(=S)N(c3cnc(C#N)c(C(F)(F)F)c3)C(=O)C2(C)C)ccc1OCCN1C[C@@H](C)N(CC(=O)Nc2cc(Cl)cc(NC3CCC(=O)NC3=O)c2)C[C@H]1C (stereo partly drawn) [Example 169, N-(3-chloro-5-(2,6-dioxopiperidin-3-ylamino)phenyl)-2-((2R,5R)-4-(2-(4-(3-(6-cyano-5-(trifluoromethyl)pyridin-3-yl)-5,5-dimethyl-4-oxo-2-thioxoimidazolidin-1-yl)-2-ethylphenoxy)ethyl)-2,5-dimethylpiperazin-1-yl)acetamide] | * (0<Y<=25%) | < 100
7 | CCc1cc(N2C(=S)N(c3cnc(C#N)c(C(F)(F)F)c3)C(=O)C2(C)C)ccc1OCCN1CCN(CC(=O)Nc2cc(NC3CCC(=O)NC3=O)cc(F)c2F)[C@H](C)C1 (stereo partly drawn) [Example 100, 2-((R)-4-(2-(4-(3-(6-cyano-5-(trifluoromethyl)pyridin-3-yl)-5,5-dimethyl-4-oxo-2-thioxoimidazolidin-1-yl)-2-ethylphenoxy)ethyl)-2-methylpiperazin-1-yl)-N-(5-(2,6-dioxopiperidin-3-ylamino)-2,3-difluorophenyl)acetamide] | * (0<Y<=25%) | < 100
8 | C[C@@H]1CN(CCOc2ccc(N3C(=S)N(c4ccc(C#N)c(C(F)(F)F)c4)C(=O)C3(C)C)cc2CC(F)F)CCN1CC(=O)Nc1cc(F)cc(NC2CCC(=O)NC2=O)c1 (stereo partly drawn) [Example 158, 2-((R)-4-(2-(4-(3-(4-cyano-3-(trifluoromethyl)phenyl)-5,5-dimethyl-4-oxo-2-thioxoimidazolidin-1-yl)-2-(2,2-difluoroethyl)phenoxy)ethyl)-2-methylpiperazin-1-yl)-N-(3-(2,6-dioxopiperidin-3-ylamino)-5-fluorophenyl)acetamide] | * (0<Y<=25%) | < 100
